Laboratory results as given in BindingDB's records for doi:10.3109/14756366.2011.566221 (Instituto Politécnico Nacional, 2011).
pKi: −log10 of the molar value.

Legend:
Assay in all cases: LDH Activity Assay
Conditions in all cases: pH 7.4
[1] = biological target: L-lactate dehydrogenase B chain (Mus musculus, UniProt P16125)
Experimental: (§1) Lactate dehydrogenase activity was determined by recording the absorbance change at 340 nm produced by the oxidation of NADH. Assays were performed at 37°C. The reagent mixture contained 0.115 mM NADH, 50 mM sodium phosphate buffer, pH 7.4, sodium pyruvate (0.31 mM for LDH-C4 and LDH-B4 and 1.25 mM for LDH-A4) and the enzyme preparation, diluted with phosphate buffer, pH 7.4, to provide a ΔE340 of 0.06-0.07 per minute when the activity was assayed in a 1-cm light path. For determination of dissociation constants, the isozymes, the inhibitors (oxamate or oxamate derivatives) and the coenzyme were incubated with the buffer used in the assay for 10 min at 37°C before adding the substrate.

[2] = biological target: L-lactate dehydrogenase A chain (Mus musculus, UniProt P06151)
Experimental: as §1

[3] = biological target: L-lactate dehydrogenase C chain (Mus musculus, UniProt P00342)
Experimental: as §1

Chain of L-lactate dehydrogenase C chain (P00342 whole entry): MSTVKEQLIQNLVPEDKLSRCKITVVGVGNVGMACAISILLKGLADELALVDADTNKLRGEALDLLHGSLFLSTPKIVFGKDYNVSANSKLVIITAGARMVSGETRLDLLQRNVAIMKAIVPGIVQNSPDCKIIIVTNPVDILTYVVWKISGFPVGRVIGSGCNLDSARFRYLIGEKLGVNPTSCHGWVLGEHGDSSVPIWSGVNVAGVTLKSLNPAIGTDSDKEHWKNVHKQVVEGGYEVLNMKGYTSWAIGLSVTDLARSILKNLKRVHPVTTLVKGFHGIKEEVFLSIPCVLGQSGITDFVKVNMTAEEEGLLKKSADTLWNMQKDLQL
Chain of L-lactate dehydrogenase B chain (P16125 whole entry): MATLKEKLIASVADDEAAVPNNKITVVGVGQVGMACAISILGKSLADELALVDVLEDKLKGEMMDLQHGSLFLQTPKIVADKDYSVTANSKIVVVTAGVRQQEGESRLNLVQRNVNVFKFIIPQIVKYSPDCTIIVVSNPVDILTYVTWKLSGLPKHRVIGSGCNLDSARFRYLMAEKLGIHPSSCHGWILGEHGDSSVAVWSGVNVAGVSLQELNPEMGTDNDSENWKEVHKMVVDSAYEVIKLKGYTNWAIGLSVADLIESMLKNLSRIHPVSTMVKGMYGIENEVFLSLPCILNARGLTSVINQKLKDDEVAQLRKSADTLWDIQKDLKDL

pKi [1]	pKi [2]	pKi [3]	Structure (SMILES)
1.84	1.90	3.40	CCC(C)NC(=O)C(=O)O (stereo not drawn) [N-sec-Butyl oxamate]
2.15	2.22	2.70	CC(C)CNC(=O)C(=O)O [N-Isobutyl oxamate]
3.05	2.76	4.92	CCCNC(=O)C(=O)O [N-Propyl oxamate]
4.22	4.10	4.52	NC(=O)C(=O)O [carbamoylformic acid]
4.46	3.85	5.70	CCNC(=O)C(=O)O [N-Ethyl oxamate]
2.15	2.04	3.12	CCCCNC(=O)C(=O)O [N-Butyl oxamate]
